The source of these data is patent publication US4831151A, “Antimicrobial imidazolium derivatives” (Hoffmann-La Roche Inc., priority 1985, dated 1989).

One data set relates to Litomosoides carinii. In words: Filaricidal activity in cotton rats infected with Litomosoides carinii. Format: in vivo, Litomosoides carinii in cotton rats (Sigmodon hispidus). The following applies: s.c., treated 14 weeks after infection, dissected 42 days after treatment; for ED90: Litomosoides carinii, sc, 1008 h, read-out: ED90 (dosage at which 90% of the worms removed from the pleural cavity are dead). As to the method:
(§1) The filaricidal activity of the compounds of formula I can be determined, for example, on cotton rats (Sigmodon hispidus) which have been infected with Litomosoides carinii. The infection with L. carinii is transmitted by the blood-sucking mite Bdellonyssus bacoti in which the development of the microfilaria to infectious larvae takes place. The cotton rats are infected by exposing them to bites of infected mites. 14 weeks after the infection groups of 2-4 animals are treated subcutaneously with the compound to be tested. 42 days after treatment with the compound to be tested the experimental animals are dissected, whereby the adult filaria are removed from the pleural cavity. Living and dead or encapsulated worms are separated from one another and weighed. The filaricidal activity is expressed as the percentage proportion of dead macrofilaria per treatment group. The ED90 is then determined by means of […] analysis using the values from different dosage groups. The ED90 is that dosage at which 90% of the worms removed from the pleural cavity are dead. In the following Table there are compiled the results which have been obtained in the previously described test with representative members of the class of compound defined by general formula I. Moreover, the Table contains data concerning the acute toxicity of some of these compounds in mg per kg in the case of single oral administration to mice.

Data set [1] can be described thus: Acute toxicity, single oral administration to mice. The conditions noted are these: mouse, in vivo, p.o. How it is done:
as §1

Where a name gives a salt, the structure may show the parent alone.

Consider `CCc1n(N=Cc2ccc(N(C)C)cc2)cc[n+]1N=Cc1ccc(N(C)C)cc1.[Cl-]` [1,3-bis[[p-(dimethyl-amino)benzylidene]amino]-2-ethylimidazolium chloride], for which the ED90 in the data set on Litomosoides carinii stood at 0.4 mg/kg. Also, in data set [1], the LD50 (usually the dose at which mortality reaches 50%) is 62.5 to 125 mg/kg.
In the case of `Cc1n(N=Cc2ccc(N(C)C)cc2)cc[n+]1N=Cc1ccc(N(C)C)cc1` [drawing 13, 1,3-bis[[(p-dimethylamino)benzylidene]amino]-2-methylimidazolium acetate], the ED90 with Litomosoides carinii came to 0.85 mg/kg.
Same read-out and setting: in the case of `CCc1n(N=Cc2ccc(N(C)C)cc2)cc[n+]1N=Cc1ccc([N+](=O)[O-])cc1` it was below 1 mg/kg; in that of `CCc1n(N=Cc2ccc(N(CC)CC)cc2)cc[n+]1N=Cc1ccc(N(CC)CC)cc1` [1,3-bis[[p-diethylamino)benzylidene]amino]-2-ethyl-imidazolium chloride], 0.75 mg/kg.
Turning to `Cc1n(N=Cc2ccc(N(C)C)cc2)cc[n+]1N=Cc1ccc(N(C)C)cc1` [drawing 12, 1,3-bis[[p-(dimethylamino)benzylidene]amino]-2-methylimidazolium salts], the “ED90 (dosage at which 90% of the worms removed from the pleural cavity are dead)” value with Litomosoides carinii is 1.6 mg/kg. In data set [1], this molecule showed an LD50 of 80 to 156 mg/kg.
With `CCc1n(N=Cc2ccc(N(C)C)cc2)cc[n+]1N=Cc1ccc(N(C)C)cc1` [1,3-bis[[(p-dimethylamino)benzylidene]amino]-2-ethylimidazolium acetate], the ED90 with Litomosoides carinii is 0.25 mg/kg.
In the case of `CCCCc1n(N=Cc2ccc(N(C)C)cc2)cc[n+]1N=Cc1ccc(N(C)C)cc1.[Cl-]` [2-butyl-1,3-bis[[p-(dimethylamino)benzylidene]amino]imidazolium chloride], the ED90 in the data set with Litomosoides carinii was below 0.25 mg/kg.
Regarding `CCc1n(N=Cc2ccc(N(C)C)c3ccccc23)cc[n+]1N=Cc1ccc(N(C)C)c2ccccc12.[Cl-]` [1,3-bis[[[4-(dimethylamino)-1-naphthyl]methylidene]amino]-2-ethyl-imidazolium chloride], the ED90 in the data set on Litomosoides carinii stood at 3 mg/kg. In data set [1], this molecule gave an LD50 of 312 to 625 mg/kg.
Consider `CCCc1n(N=Cc2ccc(N(C)C)cc2)cc[n+]1N=Cc1ccc(N(C)C)cc1.[Cl-]` [1,3-bis[[p-(dimethylamino)benzylidene]amino]-2-propyl-imidazolium chloride], for which the ED90 in the data set on Litomosoides carinii was below 0.25 mg/kg. Moreover, the LD50 in data set [1] was 62.5 to 125 mg/kg.
